# In US4088772A, “Methanodibenzocycloheptapyrroles” (E. I. Du Pont de Nemours and Company, priority 1975, dated 1978):
# Structures can show the parent of a compound that is named as a salt. Where two headings read alike, the source gives them in different places.
# Key:
# [1] = system: phenylquinone-induced writhing; assay: Phenylquinone writhing test (analgesia); assay type: in vivo, mouse (Carworth CF1 S female); details: for ED50: Mus musculus
# Excerpt: This mouse test is predictive of analgesic response in humans. [E. Siegmund, R. Cadmus and G. Lee, Proc. Soc.
# ED50 values were obtained graphically from the data.
# [2] = system: female white mice; assay: animal or person; details: oral, mice; for ED50: Mus musculus, po
# [3] = in vivo; details: mouse, in vivo, po
# [4] = read-out: Catatonia ED50, Table III
# [5] = read-out: Exploratory Loss Visual ED50, Table III
# [6] = read-out: Muscle Tone ED50, Table III
# [7] = read-out: Ptosis ED50, Table III
# [8] = read-out: Reflexes Grip ED50, Table III
# [9] = read-out: Reflexes Lift ED50, Table III
# [10] = read-out: Reflexes Pinna ED50, Table III
# [11] = read-out: Catatonia ED50, Table 1
# [12] = read-out: Exploratory Loss Visual ED50, Table 1
# [13] = read-out: Muscle Tone ED50, Table 1
# [14] = read-out: Reflexes Grip ED50, Table 1
# [15] = read-out: Reflexes Lift ED50, Table 1
# [16] = read-out: Reflexes Pinna ED50, Table 1
SMILES,LD50 at 24 h [3] [mg/kg],"ED50 ([1]; po, Table 1, mice) [mg/kg]","ED50 [2, 11] [mg/kg]","ED50 [2, 12] [mg/kg]","ED50 [2, 13] [mg/kg]","ED50 ([2]; read-out: Ptosis ED50, Table 1) [mg/kg]","ED50 [2, 14] [mg/kg]","ED50 [2, 15] [mg/kg]","ED50 [2, 16] [mg/kg]",ED50 [3] [mg/kg],other results
"CC(=O)Nc1ccc2c(c1)[C@]13C[C@H]2c2ccccc2[C@H]1CN(CC1CCCC1)C3 (relative stereo) [Example 65, 5-Acetamido-2-cyclopentylmethyl-2,3,8,12b-tetrahydro1H-3a,8-methanodibenzo[3,4:6,7]cyclohepta[1,2-c]pyrrole Hydrochloride]",300,–,–,–,–,–,–,–,–,–,"ED50 ([1]; po, Table III, mice): 18 mg/kg; ED50 [2, 4]: 60 mg/kg; ED50 [2, 5]: 200 mg/kg; ED50 [2, 6]: 60 mg/kg; ED50 [2, 7]: 7 mg/kg; ED50 [2, 8]: > 324 mg/kg; ED50 [2, 9]: 60 mg/kg; ED50 [2, 10]: 36 mg/kg"
"c1ccc2c(c1)[C@@H]1C[C@@]3(CN(CC4CCCCCCC4)C[C@H]23)c2ccccc21 (relative stereo) [Example 34, 2-Cyclooctylmethyl-2,3,8,12b-tetrahydro-1H-3a,8-methanodibenzo[3,4:6,7]cyclohepta[1,2-c]pyrrole]",> 324,6,23,40,21,4,> 324,62,97,> 324,–
"c1ccc2c(c1)[C@@H]1C[C@@]3(CN(C4CCCC4)C[C@H]23)c2ccccc21 (relative stereo) [Example 48, 2-Cyclopentyl-2,3,8,12b-tetrahydro-1H-3a,8-methanodibenzo[3,4:6,7]cyclohepta[1,2-c]pyrrole]",> 324,–,36,100,100,60,200,60,60,–,"ED50 ([1]; Table 1, oral, mice): 38 mg/kg; ED50 ([3]; Tremors ED50, Table 1, mice): > 324 mg/kg"
"Fc1ccc2c(c1)[C@]13C[C@H]2c2ccccc2[C@H]1CN(CC1CCCC1)C3 (relative stereo) [Example 77, 5-Fluoro-2-cyclopentylmethyl-2,3,8,12b-tetrahydro-1H-3a,8-methanodibenzo[3,4:6,7]cyclohepta[1,2-c]pyrrole Hydrochloride]",> 324,–,–,–,–,–,–,–,–,–,"ED50 ([1]; po, Table III, mice): < 130 mg/kg; ED50 [2, 4]: 20 mg/kg; ED50 [2, 5]: 7 mg/kg; ED50 [2, 6]: 20 mg/kg; ED50 [2, 7]: 7 mg/kg; ED50 [2, 8]: > 324 mg/kg; ED50 [2, 9]: 20 mg/kg; ED50 [2, 10]: 36 mg/kg"
"CCCCN1CC2c3ccccc3C3CC2(C1)c1ccccc13 (stereo not shown) [Example 13, 2-n-Butyl-2,3,8,12b-tetrahydro-1H-3a,8-methanodibenzo[3,4:6,7]cyclohepta[1,2-c]pyrrole]",> 324,–,12,12,12,7,200,7,≤ 4,–,"ED50 ([1]; Table 1, oral, mice): 10.5 mg/kg; ED50 ([3]; Tremors ED50, Table 1, mice): 300 mg/kg"
"c1ccc2c(c1)C1CC3(CN(CC4CCCC4)CC23)c2ccccc21 (single isomer, unassigned; (-)) [(-)-Cyclopentylmethyl, 2-Cyclopentylmethyl-2,3,8,12b-tetrahydro-trans-1H,-3a,8-methanodibenzo[3,4:6,7]cyclohepta[1,2-c]pyrrole]",> 324,–,–,–,–,–,200,–,–,> 324,"Phenylquinone Analgesia ED50 ([1]; Table 1, oral, mice): 1.2 mg/kg; Catatonia ED50 ([2]; Table 1): 7 mg/kg; Exploratory Loss Visual ED50 ([2]; Table 1): < 4 mg/kg; Muscle Tone ED50 ([2]; Table 1): < 4 mg/kg; Ptosis ED50 ([2]; Table 1): < 4 mg/kg; Reflexes Lift ED50 ([2]; Table 1): 4 mg/kg; Reflexes Pinna ED50 ([2]; Table 1): 4 mg/kg"
"CCOC(=O)CCCN1CC2c3ccccc3C3CC2(C1)c1ccccc13 (stereo not shown) [Example 11, Ethyl 2,3,8,12b-Tetrahydro-1H-3a,8-methanodibenzo-[3,4:6,7]cyclohepta[1,2-c]pyrrole-2-butyrate]",> 324,26,100,100,200,100,> 324,> 324,100,> 324,–
"[O-][N+]1(CC2CCCC2)CC2c3ccccc3C3CC2(C1)c1ccccc13 (stereo not shown) [Cyclopentylmethyl-N-oxide, N-Oxide of 2-cyclopentylmethyl-2,3,8,12b-tetrahydro-1H-3a,8-methanodibenzo[3,4:6,7]cyclohepta[1,2-c]-pyrrole]",> 324,24,36,12,12,≤ 4,> 324,20,7,> 324,–
"c1ccc2c(c1)C1CC3(CN(CCC4CCCCC4)CC23)c2ccccc21 (stereo not shown) [Example 29, 2-(2-Cyclohexylethyl)-2,3,8,12b-tetrahydro-1H-3a,8-methanodibenzo[3,4:6,7]cyclohepta[1,2-c]pyrrole]",> 324,28,21,24,24,17,290,78,50,> 324,–
"O=Cc1ccc2c(c1)[C@]13C[C@H]2c2ccccc2[C@H]1CN(CC1CCCC1)C3 (relative stereo) [Example 69, 5-Formyl-2-cyclopentylmethyl-2,3,8,12b-tetrahydro-1H-3a,8-methanodibenzo[3,4:6,7]cyclohepta[1,2-c]pyrrole Hydrochloride]",> 324,–,–,–,–,–,–,–,–,–,"ED50 ([1]; po, Table III, mice): < 130 mg/kg; ED50 [2, 4]: 60 mg/kg; ED50 [2, 5]: 60 mg/kg; ED50 [2, 6]: 60 mg/kg; ED50 [2, 7]: 36 mg/kg; ED50 [2, 8]: > 324 mg/kg; ED50 [2, 9]: 60 mg/kg; ED50 [2, 10]: 20 mg/kg"
"c1ccc2c(c1)C1CC3(CN(CCCC4CCCCC4)CC23)c2ccccc21 (stereo not shown) [Example 30, 2-(3-Cyclohexylpropyl)-2,3,8,12b-tetrahydro-1H-3a,8-methanodibenzo[3,4:6,7]cyclohepta[1,2-c]pyrrole]",> 324,7,12,4,–,4,200,12,–,> 324,–
"COCCN1C[C@@H]2c3ccccc3[C@@H]3C[C@@]2(C1)c1ccccc13 (relative stereo) [Example 41, 2-(2-Methoxyethyl)-2,3,8,12b-tetrahydro-1H-3a,8-methanodibenzo[3,4:6,7]cyclohepta[1,2-c]pyrrole]",300,4.2,20,20,36,20,200,36,20,> 324,–
"c1ccc2c(c1)[C@@H]1C[C@@]3(CN(CC4CCCO4)C[C@H]23)c2ccccc21 (stereo partly shown) [Example 62, 2-(2-Tetrahydrofurylmethyl)-2,3,8,12b-tetrahydro-1H-3a,8-methanodibenzo[3,4:6,7]cyclohepta[1,2-c]pyrrole]",> 324,7,20,12,20,–,200,20,–,–,–
"Clc1ccc2c(c1)[C@]13C[C@H]2c2ccccc2[C@H]1CN(CC1CCCC1)C3 (relative stereo) [Example 76, 5-Chloro-2-cyclopentylmethyl-2,3,8,12b-tetrahydro-1H-3a,8-methanodibezno[3,4:6,7]cyclohepta[1,2-c]pyrrole Hydrochloride]",300,–,–,–,–,–,–,–,–,–,"ED50 ([1]; po, Table III, mice): < 130 mg/kg; ED50 [2, 4]: 12 mg/kg; ED50 [2, 5]: 7 mg/kg; ED50 [2, 6]: 12 mg/kg; ED50 [2, 7]: 7 mg/kg; ED50 [2, 8]: > 324 mg/kg; ED50 [2, 9]: 20 mg/kg; ED50 [2, 10]: 20 mg/kg"
"CCCN1C[C@@H]2c3ccccc3[C@@H]3C[C@@]2(C1)c1ccccc13 (relative stereo) [Example 58, 2-n-Propyl-2,3,8,12b-tetrahydro-1H-3a,8-methanodibenzo[3,4:6,7]cyclohepta[1,2-c]pyrrole]",200,–,7,7,7,7,60,7,4,–,"ED50 ([1]; Table 1, oral, mice): 2.9 mg/kg"
"Brc1ccc2c(c1)[C@]13C[C@H]2c2ccccc2[C@H]1CN(CC1CCCC1)C3 (relative stereo) [Example 70, 5-Bromo-2-cyclopentylmethyl-2,3,8,12b-tetrahydro-1H-3a,8-methanodibenzo[3,4:6,7]cyclohepta[1,2-c]pyrrole Hydrochloride]",> 324,–,–,–,–,–,–,–,–,–,"ED50 ([1]; po, Table III, mice): < 130 mg/kg; ED50 [2, 4]: 12 mg/kg; ED50 [2, 5]: 20 mg/kg; ED50 [2, 6]: 12 mg/kg; ED50 [2, 7]: 7 mg/kg; ED50 [2, 8]: > 324 mg/kg; ED50 [2, 9]: 20 mg/kg; ED50 [2, 10]: 7 mg/kg"
"CCCCCCCCN1CC2c3ccccc3C3CC2(C1)c1ccccc13 (stereo not shown) [Example 16, 2-n-Octyl-2,3,8,12b-tetrahydro-1H-3a,8-methanodibenzo[3,4:6,7]cyclohepta[1,2-c]pyrrole]",> 324,12,–,20,–,–,> 324,20,20,> 324,–
"CC(C)(C)N1C[C@@H]2c3ccccc3[C@@H]3C[C@@]2(C1)c1ccccc13 (relative stereo) [Example 56, 2-Tertiarybutyl-2,3,8,12b-tetrahydro-1H-3a,8-methanodibenzo[3,4:6,7]cyclohepta[1,2-c]pyrrole]",300,–,200,200,100,100,100,60,200,–,"ED50 ([1]; Table 1, oral, mice): 45 mg/kg; ED50 ([3]; Tremors ED50, Table 1, mice): 200 mg/kg"
